Patent US12692491B2, “Nucleic acid complexes for screening barcoded compounds” (Children's Medical Center Corporation, priority 2015, dated 2026)

Columns and labels:
streptavidin [1] = molecular target: T1, streptavidin (Streptomyces avidinii, UniProt P22629); experiment: Biotin-streptavidin nanoswitch on-rate and off-rate experiments; assay type: binding
T1 construct: purchased Rockland
Procedure: This construct used biotinylated versions of two oligonucleotides (var 4 and var 8), which were used in 4× molar excess to the scaffold, while all other oligonucleotides were used in a 10× molar excess. […] The final DNA construct was then diluted 100× from its original concentration of ~16 nM (to 160 pM), and mixed in equal volumes with streptavidin (Rockland) at 6 nM nominal concentration to form the loops, yielding final nominal concentrations of ~80 pM and 3 nM, respectively.
The 25° C. experiment was performed at room temperature, the 4° C. experiment was performed in a cold room, and the 37° C. and 50° C. experiments were performed using a thermal cycler. […] Actual concentrations used to determine the on-rates were measured using spectrophotometry and a HABA assay to determine streptavidin activity.
Off-rate measurements were performed by forming looped construct as described above, and letting the solution sit for at least 24 hours to allow the system to reach equilibrium. […] The 4° C. condition was done in a refrigerator, the 25° C. sample was done in a water bath, and the 37° C. and 50° C. temperatures were done in a thermal cycler. To run all the samples on a single gel, the quenching times were determined relative to the predetermined gel running time.
We additionally used Eyring analysis to fit the temperature dependence of the kinetic rates: […]

streptavidin [2] = molecular target: T1, streptavidin; experiment: Desthiobiotin-streptavidin nanoswitch off-rate experiments; assay type: binding
Procedure: Desthiobiotin experiments were conducted in a similar manner as the biotin experiments with slight modifications. […] The off-rate of the desthiobiotin interaction is much faster than the typical 100 minute gel run time. Noting that once a loop opens in the gel, the reptation of the DNA prevents the loop from closing again, we ran samples for different amounts of time in the gel at 15 V/cm and 4° C. and quantified the fraction looped as a function of running time (Appendix A—Supplementary FIG. 5). In addition to allowing the determination of the desthiobiotin-streptavidin off rate, this gel also allowed us to determine the minimum amount of time required to achieve separation of the looped and unlooped bands in the gel. This enabled the use of the standard quenching technique for measuring desthiobiotin off-rates as described in the previous section; these gels were run at 15 V/cm for 10 minutes in pre-chilled electrophoresis buffer.

T1 sequence (P22629 25-183): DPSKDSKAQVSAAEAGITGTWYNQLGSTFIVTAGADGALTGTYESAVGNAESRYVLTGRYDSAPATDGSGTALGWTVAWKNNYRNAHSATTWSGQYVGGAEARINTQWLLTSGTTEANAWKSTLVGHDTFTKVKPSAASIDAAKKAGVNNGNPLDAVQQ

Structure (SMILES): O=C(O)CCCC[C@@H]1SC[C@@H]2NC(=O)N[C@@H]21 [biotin]
- on-rate (streptavidin [1]; 150 mM salt, room temperature): 4.0±0.7×10^6 M^−1s^−1
- equilibrium enthalpy change ΔH (streptavidin [1]; calculated from on-rate and off-rate measurements): 26.01 ± 0.05 kcal/mol
- dissociation time (streptavidin [1]; physiological salt conditions and 25° C.): 9.7 ± 0.4 days

Structure (SMILES): C[C@@H]1NC(=O)N[C@@H]1CCCCCC(=O)O [desthiobiotin]
- off-rate of streptavidin-desthiobiotin (streptavidin [2]; 4° C.): 35.3 ± 7.5 min
- off-rate of streptavidin-desthiobiotin (streptavidin [2]; room temperature): 8.6 ± 1.2 min
